Source: BigSolDB 2.1

CC(=O)N[C@@H](CCC(N)=O)C(=O)O
solubility (mole fraction)
Settings	283.15 K	288.15 K	293.15 K	298.15 K	303.15 K	308.15 K	313.15 K	318.15 K	323.15 K
in 2-butanone	0.000381	0.000395	0.000425	0.000451	0.000479	0.000516	0.000564	0.000606	0.000658
in acetone	0.00016	0.000192	0.000232	0.000275	0.000312	0.000342	0.000389	0.000422	0.000475
in acetonitrile	0.000116	0.000128	0.000139	0.000152	0.000165	0.000179	0.000194	0.000205	0.000217
in ethanol	0.000347	0.000389	0.000461	0.000543	0.000618	0.000685	0.000768	0.000845	0.000935
in ethyl acetate	0.000101	0.000136	0.000186	0.000222	0.000271	0.000323	0.000362	0.000402	0.000431
in isobutanol	0.000288	0.000309	0.000354	0.000415	0.000464	0.000527	0.000587	0.000635	0.000707
in methanol	0.000974	0.00112	0.00132	0.00149	0.00176	0.00206	0.00243	0.00281	0.00318
in methyl acetate	0.000141	0.000167	0.000201	0.000245	0.000277	0.000315	0.000351	0.000401	0.000445
in n-butanol	8.9e-05	0.000102	0.000144	0.000193	0.000246	0.000314	0.000372	0.000439	0.000516
in n-propanol	0.000371	0.000405	0.000434	0.000471	0.000498	0.00053	0.000564	0.000594	0.000637
in sec-butanol	0.000347	0.000395	0.000452	0.000501	0.000554	0.000605	0.000661	0.000705	0.000757
in water	0.00214	0.00233	0.00265	0.00297	0.00358	0.0043	0.00492	0.00587	0.00767
